We go through four compounds from US10662187B2, “Bruton's tyrosine kinase inhibitors” (Zibo Biopolar Changsheng Pharmaceutical Co. Ltd., priority 2016, dated 2020).

One test addresses EGFR (Homo sapiens (Human), UniProt P00533). Put plainly: EGFR kinase assay. Format: biochemical. Here is the method:
Btk Kinase Assay and Other Kinases Assay Btk kinase activity was determined using a homogenous time resolved fluorescence (HTRF) methodology. Measurements were performed in a reaction volume of 15 μL using 384-well assay plates. Kinase enzyme, inhibitor, ATP and 1 μM peptide substrate were incubated in a reaction buffer compose of Hepes 50 mM (pH7.0), NaN3 0.02%, BSA 0.01%, Orthocanadate 0.1 mM. After one hour, the kinase reaction was quenched by the addition of […] antibody and XL-665 in 1×Detection buffer containing 60 mM EDTA (Cisbio), and the mixture was allowed to incubate for one hour. The HTRF signal was measured on a multimode plate reader (EnVision® Multilabel Reader, Perkin Elmer) with an excitation wavelength (λEx) of 330 nm and detection wavelengths (λEm) of 615 and 665 nm. Activity was determined by the ratio of the fluorescence at 665 nm to that at 615 nm. For each compound, enzyme activity as measured at various concentrations of compound, Negative control reactions were performed in the absence of inhibitor in two replicates and eight no enzyme controls were used to determine baseline fluorescence levels. I[…] were obtained according to the equation: […]

The target of a further test is BLK (Homo sapiens (Human), UniProt P51451). As to the kind of experiment: BLK kinase assay (HTRF). The format is biochemical. The conditions noted are these: [ATP]=20 μM, BLK=0.6 nM. On the procedure: (§1) Btk Kinase Assay and Other Kinases Assay Btk kinase activity was determined using a homogenous time resolved fluorescence (HTRF) methodology. Measurements were performed in a reaction volume of 15 μL using 384-well assay plates. Kinase enzyme, inhibitor, ATP and 1 μM peptide substrate were incubated in a reaction buffer compose of Hepes 50 mM (pH7.0), NaN3 0.02%, BSA 0.01%, Orthocanadate 0.1 mM. After one hour, the kinase reaction was quenched by the addition of […] antibody and XL-665 in 1×Detection buffer containing 60 mM EDTA (Cisbio), and the mixture was allowed to incubate for one hour. The HTRF signal was measured on a multimode plate reader (EnVision® Multilabel Reader, Perkin Elmer) with an excitation wavelength (λEx) of 330 nm and detection wavelengths (λEm) of 615 and 665 nm. Activity was determined by the ratio of the fluorescence at 665 nm to that at 615 nm. For each compound, enzyme activity as measured at various concentrations of compound, Negative control reactions were performed in the absence of inhibitor in two replicates and eight no enzyme controls were used to determine baseline fluorescence levels. I[…] were obtained according to the equation: […] For LYN assay, [ATP]=20 μM, LYN=0.12 nM. For LCK assay, [ATP]=20 μM, LCK=0.2 nM. For BLK assay, [ATP]=20 μM, BLK=0.6 nM.
BLK, sequence (P51451 whole entry, species assumed): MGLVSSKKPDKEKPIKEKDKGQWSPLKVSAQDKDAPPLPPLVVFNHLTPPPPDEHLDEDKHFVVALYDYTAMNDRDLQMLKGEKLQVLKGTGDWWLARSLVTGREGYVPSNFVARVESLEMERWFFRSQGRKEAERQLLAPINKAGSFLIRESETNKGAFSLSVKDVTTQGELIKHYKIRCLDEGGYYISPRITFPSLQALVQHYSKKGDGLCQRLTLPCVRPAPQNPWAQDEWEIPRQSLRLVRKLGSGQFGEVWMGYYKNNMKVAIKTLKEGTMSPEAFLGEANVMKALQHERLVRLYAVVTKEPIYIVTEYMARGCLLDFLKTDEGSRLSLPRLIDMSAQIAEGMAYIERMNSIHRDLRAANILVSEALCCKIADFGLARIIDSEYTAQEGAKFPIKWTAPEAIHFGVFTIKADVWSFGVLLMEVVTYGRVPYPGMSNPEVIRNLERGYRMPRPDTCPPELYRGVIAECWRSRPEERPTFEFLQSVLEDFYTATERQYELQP

A further test concerns the target LCK (Homo sapiens (Human), UniProt P06239). Put plainly: LCK kinase assay (HTRF). Format: biochemical. To be noted: [ATP]=20 μM, LCK=0.2 nM. On the procedure:
as §1
(In general: TR-FRET usually uses a lanthanide donor and a delayed reading to cut background.)

Test [1] deals with T1, BTK (Homo sapiens (Human), UniProt Q06187). As to the kind of experiment: Btk kinase assay (HTRF). Format: biochemical. The conditions noted are these: [ATP]=80 μM, BTK=3.4 nM. In a few lines: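 HTRF read-out with enzyme, inhibitor, ATP and 1 μM peptide substrate in 50 mM Hepes pH 7.0, 0.02% NaN3, 0.01% BSA, 0.1 mM orthovanadate. Activity measured across compound concentrations against no-inhibitor controls, with no-enzyme wells as baseline.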
Target sequence in this assay (Q06187 whole entry, species assumed): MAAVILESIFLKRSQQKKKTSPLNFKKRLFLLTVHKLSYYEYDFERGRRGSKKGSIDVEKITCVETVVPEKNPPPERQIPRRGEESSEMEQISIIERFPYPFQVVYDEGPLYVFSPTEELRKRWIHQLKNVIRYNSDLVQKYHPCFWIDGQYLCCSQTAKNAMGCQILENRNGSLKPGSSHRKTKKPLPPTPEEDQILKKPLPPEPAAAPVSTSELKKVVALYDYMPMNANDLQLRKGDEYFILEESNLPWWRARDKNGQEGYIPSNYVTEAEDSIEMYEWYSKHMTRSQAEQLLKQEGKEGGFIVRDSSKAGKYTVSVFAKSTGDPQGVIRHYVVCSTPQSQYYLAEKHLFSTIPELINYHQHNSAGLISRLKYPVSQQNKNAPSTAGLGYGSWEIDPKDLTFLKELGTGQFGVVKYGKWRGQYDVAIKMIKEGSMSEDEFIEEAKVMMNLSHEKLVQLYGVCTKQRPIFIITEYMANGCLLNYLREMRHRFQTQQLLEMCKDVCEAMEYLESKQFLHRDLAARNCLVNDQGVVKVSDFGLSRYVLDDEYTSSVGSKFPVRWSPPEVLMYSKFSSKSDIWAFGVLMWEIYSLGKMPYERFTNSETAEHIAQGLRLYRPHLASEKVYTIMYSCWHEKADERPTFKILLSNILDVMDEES

The target of another test is LYN (Homo sapiens (Human), UniProt P07948). As to the kind of experiment: LYN kinase assay (HTRF). The format is biochemical. The conditions noted are these: [ATP]=20 μM, LYN=0.12 nM. On the procedure:
as §1

Test [2] has as its target Btk (Mus musculus (Mouse), UniProt P35991). Put plainly: Btk occupancy in vivo (PBMCs or splenocytes, PCI-33380 labeling). To be noted: after 4 hours, Babc/L mice. Here is the method: For analysis of Btk occupancy in Babc/L mice following oral dosing of compounds after 4 hours. Isolating peripheral blood mononuclear cells (PBMCs) with mouse peripheral blood separation kit (Hao Yang Biological Manufacture CO., LTD, Tianjin) were collected from Babc/L mice (1 ml blood from two mice). Spleens were processed to splenocytes followed by 5 min incubation in red blood cell lysing buffer (from mouse peripheral blood separation kit). PBMCs or splenocytes were then PCI-33380-labeled and lysates analyzed by fluorescent gel scanning as described in cellular assays.

The target in test [3] is T1, BTK. Put plainly: Btk occupancy in cellular assays (PCI-33380 labeling, Jeko-1 cells). The format is cell-based. The conditions noted are these: 1.5 h pre-incubation with compound, PCI-33380 5 μM 1 h. On the procedure:
Btk Occupancy in Cellular Assays
For PCI-33380 labeling of human B cells, 10^6 Jeko-1 cells were pre-incubated with compound for 1.5 h before labeling. Then cells were treated with PCI-33380 at 5 μM for 1 h. Washed, lysed in Ripa buffer containing sample reducing agent, and analyzed by SDS/PAGE and fluorescent gel scanning using a Typhoon scanner 9500 (GE Healthcare) (Ex, 532 nm; Em, 555 nm). The gel was then blotted and total Btk levels detected by standard Western blot with Btk antibody (CST).
Target sequence in this assay (Q06187 whole entry): as the sequence (Q06187 whole entry, species assumed) above

Like-named read-outs stand apart in the source and are kept apart here.

LYN, sequence (P07948 whole entry, species assumed): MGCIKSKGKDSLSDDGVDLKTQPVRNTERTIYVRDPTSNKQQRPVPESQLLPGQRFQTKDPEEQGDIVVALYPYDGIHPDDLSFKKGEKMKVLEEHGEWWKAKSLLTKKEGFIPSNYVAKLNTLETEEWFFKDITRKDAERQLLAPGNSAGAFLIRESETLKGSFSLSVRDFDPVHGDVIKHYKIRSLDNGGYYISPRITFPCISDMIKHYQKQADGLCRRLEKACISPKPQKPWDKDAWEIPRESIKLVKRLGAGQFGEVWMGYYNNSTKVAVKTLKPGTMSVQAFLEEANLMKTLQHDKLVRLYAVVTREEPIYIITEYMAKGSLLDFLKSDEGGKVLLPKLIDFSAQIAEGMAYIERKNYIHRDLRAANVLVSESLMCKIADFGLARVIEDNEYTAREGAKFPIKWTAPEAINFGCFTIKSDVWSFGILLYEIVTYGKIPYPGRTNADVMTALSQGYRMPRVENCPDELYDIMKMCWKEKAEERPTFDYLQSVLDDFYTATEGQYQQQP
Btk, sequence (P35991 whole entry): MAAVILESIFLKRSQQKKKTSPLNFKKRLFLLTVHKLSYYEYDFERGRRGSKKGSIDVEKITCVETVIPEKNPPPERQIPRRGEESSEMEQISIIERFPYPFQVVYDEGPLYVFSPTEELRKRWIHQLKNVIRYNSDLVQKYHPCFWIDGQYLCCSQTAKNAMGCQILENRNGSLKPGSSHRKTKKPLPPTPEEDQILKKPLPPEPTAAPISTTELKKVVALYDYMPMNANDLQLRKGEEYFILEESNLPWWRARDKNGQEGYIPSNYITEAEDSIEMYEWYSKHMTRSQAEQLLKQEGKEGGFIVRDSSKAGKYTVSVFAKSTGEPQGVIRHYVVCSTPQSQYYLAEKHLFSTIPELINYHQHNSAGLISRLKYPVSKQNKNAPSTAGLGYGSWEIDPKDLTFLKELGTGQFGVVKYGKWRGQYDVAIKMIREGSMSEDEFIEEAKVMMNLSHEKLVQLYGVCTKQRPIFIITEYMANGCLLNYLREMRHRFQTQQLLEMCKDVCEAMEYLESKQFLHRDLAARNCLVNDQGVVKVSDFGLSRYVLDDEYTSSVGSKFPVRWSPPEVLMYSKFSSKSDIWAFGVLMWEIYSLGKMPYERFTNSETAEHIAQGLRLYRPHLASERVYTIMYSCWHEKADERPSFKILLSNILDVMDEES
EGFR, sequence (P00533 25-1210, species assumed): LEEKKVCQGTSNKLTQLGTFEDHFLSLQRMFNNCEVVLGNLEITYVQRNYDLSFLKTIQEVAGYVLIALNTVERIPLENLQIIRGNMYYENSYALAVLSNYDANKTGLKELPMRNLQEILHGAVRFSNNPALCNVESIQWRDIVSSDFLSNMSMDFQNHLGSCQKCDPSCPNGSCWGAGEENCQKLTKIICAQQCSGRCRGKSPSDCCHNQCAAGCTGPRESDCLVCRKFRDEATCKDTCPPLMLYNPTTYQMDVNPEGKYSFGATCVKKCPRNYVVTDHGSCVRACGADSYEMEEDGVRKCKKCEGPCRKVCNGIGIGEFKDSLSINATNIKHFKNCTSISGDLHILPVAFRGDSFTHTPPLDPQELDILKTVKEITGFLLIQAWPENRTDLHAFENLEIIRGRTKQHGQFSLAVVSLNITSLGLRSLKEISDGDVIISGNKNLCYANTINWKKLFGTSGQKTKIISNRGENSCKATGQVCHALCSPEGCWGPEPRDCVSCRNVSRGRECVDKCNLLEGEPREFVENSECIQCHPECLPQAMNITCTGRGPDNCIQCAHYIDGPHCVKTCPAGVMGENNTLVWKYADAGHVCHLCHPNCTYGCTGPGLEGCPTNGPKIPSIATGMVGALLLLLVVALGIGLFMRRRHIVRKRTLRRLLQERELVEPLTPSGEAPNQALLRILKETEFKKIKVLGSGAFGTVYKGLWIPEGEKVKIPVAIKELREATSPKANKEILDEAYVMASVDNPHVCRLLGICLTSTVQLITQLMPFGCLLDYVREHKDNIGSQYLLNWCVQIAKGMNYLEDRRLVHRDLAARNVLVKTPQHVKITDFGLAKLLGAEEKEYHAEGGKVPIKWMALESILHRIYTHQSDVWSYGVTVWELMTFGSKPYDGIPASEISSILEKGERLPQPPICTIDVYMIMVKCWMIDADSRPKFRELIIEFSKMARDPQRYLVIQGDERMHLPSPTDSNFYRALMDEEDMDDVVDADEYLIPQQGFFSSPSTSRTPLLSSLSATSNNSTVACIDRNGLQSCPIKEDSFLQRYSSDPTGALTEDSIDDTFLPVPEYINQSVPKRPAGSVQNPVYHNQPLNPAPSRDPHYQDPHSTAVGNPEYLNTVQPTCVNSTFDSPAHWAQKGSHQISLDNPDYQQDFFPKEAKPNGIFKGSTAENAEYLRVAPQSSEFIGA
LCK, sequence (P06239 whole entry, species assumed): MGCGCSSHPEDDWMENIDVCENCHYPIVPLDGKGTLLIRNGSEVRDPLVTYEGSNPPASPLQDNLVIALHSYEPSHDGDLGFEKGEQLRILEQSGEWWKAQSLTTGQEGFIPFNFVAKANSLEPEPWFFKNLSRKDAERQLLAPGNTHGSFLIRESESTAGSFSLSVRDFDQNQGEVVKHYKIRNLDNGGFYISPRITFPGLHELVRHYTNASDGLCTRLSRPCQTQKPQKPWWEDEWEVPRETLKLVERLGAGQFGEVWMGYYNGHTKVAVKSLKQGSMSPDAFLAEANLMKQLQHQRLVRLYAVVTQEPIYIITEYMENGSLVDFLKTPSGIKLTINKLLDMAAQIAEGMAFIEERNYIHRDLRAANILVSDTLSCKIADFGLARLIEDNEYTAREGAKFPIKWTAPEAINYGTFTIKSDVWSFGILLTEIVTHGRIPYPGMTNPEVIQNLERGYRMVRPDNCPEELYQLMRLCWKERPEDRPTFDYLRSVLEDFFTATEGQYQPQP

On to `C=CC(=O)N1CC[C@@H](n2nc(-c3ccc(Oc4ccccc4)cc3)c3cnccc32)C1` [Compound 1, (R)-1-(3-(3-(4-phenoxyphenyl)-1H-pyrazolo[4,3-c]pyridin-1-yl)pyrrolidin-1-yl)prop-2-en-1-one], for which the IC50 against EGFR is 100 to 1000 nM; against BLK, less than 10 nM; on LCK, 1000 to 10000 nM; on BTK [1] (read-out: BTK IC50), less than 10 nM; on BTK [1] (read-out: BTK Inhibition) it was less than 10 nM; at LYN, no more than 10000 nM.
Consider `C=CC(=O)N1CCC[C@@H](n2nc(-c3ccc(Oc4cccc(OC)c4F)cc3)c3cncc(OC)c32)C1` [Compound 6, (R)-1-(3-(3-(4-(2-fluoro-3-methoxyphenoxy)phenyl)-7-methoxy-1H-pyrazolo[4,3-c]pyridin-1-yl)piperidin-1-yl)prop-2-en-1-one], for which the IC50 is 100 to 1000 nM at EGFR; 10 to 100 nM against BLK; 1000 to 10000 nM against LCK; less than 10 nM at BTK [1] (read-out: BTK IC50); less than 10 nM on BTK [1] (read-out: BTK Inhibition); 1000 to 10000 nM against LYN.
With `C=CC(=O)N1CCC[C@@H](n2nc(-c3ccc(Oc4cccc(OC)c4F)cc3)c3cnccc32)C1` [Compound 71, (R)-1-(3-(3-(4-(2-fluoro-3-methoxyphenoxy)phenyl)-1H-pyrazolo[4,3-c]pyridin-1-yl)piperidin-1-yl)prop-2-en-1-one], the IC50 on BTK [1] (read-out: BTK Inhibition) is less than 10 nM. Also, the “Btk occupancy in vivo” value on Btk [2] (10 mg/kg single oral dose) is given as “full occupancy”. Also, the “concentration sufficient to fully occupy the active site of Btk” value on BTK [3] amounted to 100 nM.
Take `C=CC(=O)N1CCC[C@@H](n2nc(-c3ccc(Oc4cccc(OC)c4F)cc3)c3cncc(OCC)c32)C1` [Compound 73, (R)-1-(3-(7-ethoxy-3-(4-(2-fluoro-3-methoxyphenoxy)phenyl)-1H-pyrazolo[4,3-c]pyridin-1-yl)piperidin-1-yl)prop-2-en-1-one]: the IC50 on BTK [1] (read-out: BTK Inhibition) is less than 10 nM. The “Btk occupancy in vivo” value at Btk [2] (5 mg/kg single oral dose) is “full occupancy”. The “concentration sufficient to fully occupy the active site of Btk” value at BTK [3] was found to be 100 nM.
